{
  "source": "paper PMC7179958",
  "about": "(CPT: Pharmacometrics & Systems Pharmacology, 2020)",
  "key": {"human hepatocytes [1]": {"system": "human hepatocytes", "experiment": "Uptake of pitavastatin and eltrombopag in cryopreserved human hepatocytes (oil spin method), comeasurement, micro‐rate constant mechanistic model", "assay_type": "in vitro ADME", "description": "(§1) Human hepatocytes were obtained from BioIVT (Brussels, Belgium; lot number: LYB; 10 donor LiverPool (8 Caucasians, 1 African American, and 1 Hispanic) and thawed according to supplier guidelines in Leibovitz L15 medium. Hepatocytes were kept on ice prior to use and were used within 3 hours of defrosting.\n(§2) Cells were separated using an oil spin method similar to the literature. ^11 , ^17 After separation, the tubes were frozen on dry ice and the bottom layer was cut off.\n(§3) A dilution factor of 100 was used to scale from pmol/mL/1 × 10^5 cells to nmol/mL/1 × 10^6 cells.\n(§4) Passive rate constants for movement into and out of the cell (k f.X and k bX, respectively) as well as uptake transporter‐mediated rate constants for association to the transporter (k aX) and dissociation (k dX) and translocation (k tX) from the transporter into the medium and cell, respectively. […] The sets of ODEs for all the models (models 1–4; Table 1 ) tested for structural identifiability and used for parameter estimation are included in the Supplemental Material .\n(§5) Parameter estimation was conducted within Monolix 2018 R2 (Lixoft, Antony, France) for each concentration and experiment as an individual data set, where to ensure positivity, a log‐normal distribution was assumed for each parameter, with a proportional residual error model for the observations.\n(§6) Hepatocyte Incubations. […] Eltrombopag was dissolved in DMSO to give 30 µmol/mL, then diluted 333-fold to 90 nmol/mL in Leibovitz L15 medium. […] Briefly, 0.5 mL microtubes (12049877, Thermo-Fisher Scientific, Gothenburg, Sweden) layered with 15 µL of 4 % cesium chloride onto which 140 µL of 8:2 silicone oil: mineral oil, with oil red O was added. Samples were taken by transferring 100 µL of hepatocyte suspension into the microtube and spun for 15 s in a Minispin centrifuge (Eppendorf, Horsholm, Denmark), during which time the hepatocytes passed through the oil into the cesium chloride bottom layer. The tubes were then frozen on dry ice and the bottom layer cut off once frozen into a 1 mL deep well plate (260252, Thermo-Fisher Scientific, Gothenburg, Sweden).\n(§7) Sample Extraction. 50 µL of water suitable for UPLC (MilliQ ELGA water, Merck-Millipore, Solna, Sweden) and 150 µL of stop solution (50:50 MeOH:MeCN, containing 0.8 % formic acid and 4 pmol/mL 5,5-diethyl-1,3-diphenyl-2-iminobarbituric acid as internal standard) were added to the frozen samples of the cut-off tube bottoms. Samples were mixed on a plate shaker for 1 h and then stored at – 80 °C overnight. Prior to analysis, samples were defrosted and mixed for 30 min before centrifugation of the plates at 4000 g for 20 min at 4 °C. Samples were transferred to a conical bottomed 96 well plate for analysis (249944, Thermo-Fisher Scientific, Gothenburg, Sweden) and diluted 1:1 with MilliQ ELGA water.\n(§8) Mechanistic Modeling. […] An estimate for the total amount of transporters (To) can be obtained during the mechanistic modeling process (9, 10), and therefore Tf can be replaced using the conservation law during parameter estimation:\n(§9) Parameter estimation for all model were conducted within the Monolix suite 2018 R2 (Lixoft, Antony, France) where to ensure positivity, a log-normal distribution was assumed for each parameter in the candidate models, together with a proportional residual error model for the observations."}, "[2]": {"experiment": "Uptake of pitavastatin and eltrombopag in cryopreserved human hepatocytes (oil spin method), comeasurement, micro‐rate constant mechanistic model", "assay_type": "in vitro ADME", "conditions": "human; model 1; conditional mode (minimum‐maximum) for 1 × 10^6 cells", "description": "as §1, §2, §3, §4, §5, §6, §7, §8, §9"}, "[3]": {"experiment": "Fraction unbound in hepatocytes, Rapid Equilibrium Dialysis (RED) device", "assay_type": "in vitro ADME", "conditions": "human, heat inactivated hepatocytes", "description": "Fraction Unbound in Hepatocytes. The estimation of the fraction unbound in hepatocytes at equilibrium can be obtained using multiple techniques: heat inactivated hepatocytes (3); linear regression obtained using the logD7.4 (4); parameter estimation (1, 3, 5, 6) or as separate binding rate constants determined experimentally (7). […] The RED device works with low volumes across a medium chamber (500 µL, white) and incubation chamber containing the hepatocytes (300 µL, red), and as such has been reported to even out the non-specific binding (NSB) between the membrane and wells, thereby improving recovery (8). The free fraction in the incubation (fu.inc) is calculated as:\nfu.inc= [medium chamber] Whiteincubation chamber(Red) . (Eq.S1)\nThe amount of non-specific binding (NSB) to the labware is important to understand the recovery from the RED device experiment to evaluate the reliability of fu.inc: […]"}, "OATP1B1 and OATP1B3": {"system": "OATP1B1 and OATP1B3", "conditions": "OATP1B1 and OATP1B3, in vitro; cited from earlier work"}, "[4]": {"experiment": "Static R value for clinical TrDDI (FDA guidance)", "parameters": "species or system human", "conditions": "for R value, static model: eltrombopag perpetrator (75 mg), pitavastatin victim, Eq. 2, FDA cut‐off 1.1"}, "[5]": {"experiment": "Plasma protein binding and blood:plasma ratio (literature)", "assay_type": "in vitro ADME", "conditions": "blood; fu.pl.P/Bl:Pl, Eq. 15, from literature values 3, 24"}, "[6]": {"conditions": "cited from earlier work"}, "[7]": {"experiment": "Semimechanistic PBPK model simulation in simulated healthy volunteers", "parameters": "species or system human", "from_the_text": "Uptake is inhibited by the opposing drug in X 3 via the respective uptake concentration at half of the maximum uptake velocity (K m.up.X) shown as the inhibition constant (K I.up). Passive movement of drug into and out of the liver is through clearances P dif.X and P def.X, respectively. Both drugs are cleared through biliary excretion (CLbi.X) into the gallbladder (X 5), and into X 2 where they can be reabsorbed.\nThe micro‐rate constants for transporter‐mediated uptake and passive uptake were scaled to macro‐rate constants (see Table 2 ) and then empirically scaled up to the human body (83 kg, healthy adult; ^23 see Table 2 ).\nThe ODE PBPK model (see Figure 1 for schematic and Supplemental Material for the set of ODEs) was developed using desolve ^27 in R‐studio (v1.1.463, R‐Studio Inc., Boston, MA) running R‐project version 3.6.0 ^28 and was similar to that used for eltrombopag and rosuvastatin. ^5 All figures in this article were generated either within Inkscape (0.93, Inkscape.org, Boston, MA) or cowplot, ggplot2, ^29 , ^30 extrafont, ^31 and Cairo. ^32"}, "human hepatocytes [8]": {"system": "human hepatocytes", "conditions": "cited from earlier work"}, "[9]": {"conditions": "model 1, conditional mode (minimum‐maximum) for 1 × 10^6 cells"}, "[10]": {"conditions": "model 1 micro‐rate constants, conditional mode (minimum‐maximum) for 1 × 10^6 cells"}, "[11]": {"conditions": "human hepatocytes over 70 seconds"}},
  "data": [
    {"smiles": "O=C(O)C[C@H](O)C[C@H](O)/C=C/c1c(C2CC2)nc2ccccc2c1-c1ccc(F)cc1", "note": "[pitavastatin, pitavastatin calcium]", "values": [
      {"measurement": "F T.X, fraction transported", "setting": "human hepatocytes [1]; CLup.X/(CLup.X+Pdif.X), Eq. 4", "value": "0.96 (0.94–0.98)"},
      {"measurement": "effect of pitavastatin on cellular eltrombopag", "setting": "human hepatocytes [1]; experimental data, except at a pitavastatin incubation of 30–100 nmol/mL", "value": "No effect"},
      {"measurement": "K m.up.X or K I.up.X", "setting": "human hepatocytes [1]; from micro‐rate constants, Eq. 7", "value": "9,525 ng/mL"},
      {"measurement": "P def.X", "setting": "human hepatocytes [1]; k bX scaled to a clearance", "value": "0.62 (0.55‐0.67) µL/min/1 × 10^6 cells"},
      {"measurement": "P dif.X", "setting": "human hepatocytes [1]; k fX scaled to a clearance", "value": "0.55 (0.46–0.61) µL/min/1 × 10^6 cells"},
      {"measurement": "k bX, passive rate constant out of the cell", "setting": "human hepatocytes [1]; [9]", "value": "0.21 (0.18–0.22) /min"},
      {"measurement": "k fX, passive rate constant into the cell", "setting": "human hepatocytes [1]; [9]", "value": "5.5 × 10^−4 (4.6 × 10^−4–6.1 × 10^−4) /min"},
      {"measurement": "k aX, transporter association rate constant", "setting": "human hepatocytes [1]; [10]", "value": "0.17 (0.14–0.25) /nmol/min"},
      {"measurement": "k dX, transporter dissociation rate constant", "setting": "human hepatocytes [1]; [10]", "value": "2.2 (1.97–2.37) /min"},
      {"measurement": "k tX, transporter translocation rate constant", "setting": "human hepatocytes [1]; [10]", "value": "1.65 (1.57–1.74) /min"},
      {"measurement": "V max.up..X, maximum uptake velocity", "setting": "human hepatocytes [1]; scaled to whole liver, Eq. 6", "value": "3.0 × 10^7 ng/min/liver"},
      {"measurement": "P dif.X, passive diffusion into the cell", "setting": "human hepatocytes [1]; scaled to whole liver, Eq. 8", "value": 118, "unit": "mL/min/liver"},
      {"measurement": "P def.X, passive diffusion out of the cell", "setting": "human hepatocytes [1]; scaled to whole liver, Eq. 9", "value": 104, "unit": "mL/min/liver"},
      {"measurement": "V max.up", "setting": "human hepatocytes [1]; transporter rate constants transformed, Eq. 6", "value": "302 (177–639) pmol/min/1 × 10^6 cells"},
      {"measurement": "K m.up", "setting": "human hepatocytes [1]; transporter rate constants transformed, Eq. 7", "value": "22.1 (16.7–25.5) nmol/mL"},
      {"measurement": "k el", "setting": "[2]", "value": 0.00367, "unit": "s⁻¹"},
      {"measurement": "fraction unbound", "setting": "[3]; RED device, overnight, pitavastatin 0.3, 10 and 100 nmol/ml, eltrombopag 30 nmol/ml, read-out: f u.inc, fraction unbound in the incubation", "value": 0.9},
      {"measurement": "fraction unbound", "setting": "[3]; pitavastatin, estimated from RED f u.inc, Eq. 16, read-out: f u.L.X, fraction unbound in the liver", "value": 0.026},
      {"measurement": "recovery", "setting": "[3]; RED device, read-out: analytical recovery", "value": 55, "unit": "%"},
      {"measurement": "fraction transported", "setting": "OATP1B1 and OATP1B3", "value": 0.78},
      {"measurement": "R value, static model", "setting": "[4]", "value": 1.07},
      {"measurement": "R value, static model", "setting": "[4]; listed as Pitavastatin", "value": "1.06–1.07"},
      {"measurement": "estimated I in.max", "setting": "[4]; pitavastatin as perpetrator, clinical dose 1–4 mg", "value": "0.5 to 3", "unit": "nmol/mL"},
      {"measurement": "fraction unbound", "setting": "[5]", "value": 0.009},
      {"measurement": "biliary elimination of pitavastatin", "setting": "[6]", "value": 53, "unit": "%"},
      {"measurement": "AUC0−∞ (literature)", "setting": "[6]; pitavastatin only, oral 1 mg, converted to blood concentration, mean ± SD", "value": "68 ± 49", "unit": "ng·h/mL"},
      {"measurement": "Cmax", "setting": "[6]; pitavastatin only, oral 1 mg, healthy volunteers, converted to blood concentration, mean ± SD", "value": "38.8 ± 21.9", "unit": "ng/mL"},
      {"measurement": "tmax (h)", "setting": "[6]; pitavastatin only, oral 1 mg, healthy volunteers", "value": "1 (0.5–1) h"},
      {"measurement": "V c.X, volume of the central compartment", "setting": "[6]; pitavastatin, total blood volume", "value": "5820. Total blood volume [ ^23 ] mL"},
      {"measurement": "CLmet.X, metabolic clearance", "setting": "[7]; PBPK model value, Eqs. 10 and 11", "value": 93, "unit": "mL/min/liver"},
      {"measurement": "CLbi.X, biliary clearance", "setting": "[7]; PBPK model value, Eqs. 12 and 13", "value": 165, "unit": "mL/min/liver"},
      {"measurement": "clearance", "setting": "[7]; human, plasma and urine, PBPK model value, Eq. 14", "value": 12, "unit": "mL/min"},
      {"measurement": "K a.X, first‐order absorption rate constant", "setting": "[7]; pitavastatin, from mean residence time PO and IV, Eq. 5", "value": 0.07, "unit": "min⁻¹"},
      {"measurement": "K m.up.P (literature)", "setting": "human hepatocytes [8]", "value": "1.4 to 2", "unit": "µM"},
      {"measurement": "P dif.P (literature)", "setting": "human hepatocytes [8]", "value": "0.4–13 µL/min/1 × 10^6 cells"},
      {"measurement": "V max.up.P (literature)", "setting": "human hepatocytes [8]", "value": "65–354 pmol/min/1 × 10^6 cells"},
      {"measurement": "k aP (literature)", "setting": "human hepatocytes [8]; [11]", "value": "7.4 (51%) /nmol/min/1 × 10^6 cells"},
      {"measurement": "k dP (literature)", "setting": "human hepatocytes [8]; [11]", "value": "6.3 /min/1 × 10^6 cells"},
      {"measurement": "k tP (literature)", "setting": "human hepatocytes [8]; [11]", "value": "4.3 (85%) /min/1 × 10^6 cells"},
      {"measurement": "P def.P (literature, micro‐rate constants)", "setting": "human hepatocytes [8]; ref Grandjean et al. 11", "value": "0.89 (27%) µL/min/1 × 10^6 cells"}
    ]}
  ]
}
